Counter-ions that a name gives are not always drawn.
Tested on: not given
Test: not given
Conditions: not given

SMILES	melting point
C=C(C)c1cccc2c1ccn2-c1ccnc(N[C@H]2CC[C@H](C(=O)N3CCn4c(C)cnc4C3)CC2)n1 (as salt: HCl) [Compound 10, {4-[4-(4-Isopropenyl-indol-1-yl)-pyrimidin-2-ylamino]-cyclohexyl}-(3-methyl-5,6-dihydro-8H-imidazo[1,2-a]pyrazin-7-yl)-methanone]	220 to 224.9 °C
Cc1cnc2n1CCN(C(=O)[C@H]1CC[C@H](Nc3nccc(-n4ccc5c(OC(F)F)cccc54)n3)CC1)C2 (as salt: HCl) [Compound 11, {4-[4-(4-Difluoromethoxy-indol-1-yl)-pyrimidin-2-ylamino]-cyclohexyl}-(3-methyl-5,6-dihydro-8H-imidazo[1,2-a]pyrazin-7-yl)-methanone]	190 to 195 °C
Cc1nnc2n1CCN(C(=O)[C@H]1CC[C@H](Nc3nccc(-n4ccc5c(OCCCS(C)(=O)=O)cccc54)n3)CC1)C2 (as salt: HCl) [Compound 23, (4-{4-[4-(3-Methanesulfonyl-propoxy)-indol-1-yl]-pyrimidin-2-ylamino}-cyclohexyl)-(3-methyl-5,6-dihydro-8H-[1,2,4]triazolo[4,3-a]pyrazin-7-yl)-methanone]	178 to 180 °C
O=C([C@H]1CC[C@H](Nc2nccc(-n3ccc4c(OCC5CCS(=O)(=O)C5)cccc43)n2)CC1)N1CCn2cnnc2C1 (some centres unmarked) (as salt: HCl) [Compound 24, (5,6-Dihydro-8H-[1,2,4]triazolo[4,3-a]pyrazin-7-yl)-(4-{4-[4-(1,1-dioxo-tetrahydro-1λ6-thiophen-3-ylmethoxy)-indol-1-yl]-pyrimidin-2-ylamino}-cyclohexyl)-methanone]	215 to 220 °C

Tested on: T1, JNK
T1 construct: Human JNK2α2 assay contains 1 nM enzyme; Human JNK1α1 assay contains 2 nM enzyme
Test: JNK Assay in vitro (phosphorylation of GST-ATF2 with [γ-33P] ATP)
Type: biochemical, Human
Conditions: IC50 affinity values; JNK isoform (JNK1α1, JNK2α2 or JNK3) not stated; Km concentrations of ATP and substrate; 30° C. for 30 min
Experimental: JNK activity was measured by phosphorylation of GST-ATF2 (19-96) with [-^33P] ATP. […] Human JNK2α2 assay contains 1 nM enzyme, 1 μM ATF2, 8 μM ATP with 1 uCi [γ-^33P] ATP. Human JNK1α1 assay contains 2 nM enzyme, 1 μM ATF2, 6 μM ATP with 1 μCi [γ-^33P] ATP. Human JNK3 (Upstate Biotech #14-501M) assay contains 2 nM enzyme, 1 μM ATF2, 4 μM ATP with 1 μCi [γ-^33P] ATP. The enzyme assay was carried out in the presence or absence of several compound concentrations. JNK and compound were pre-incubated for 10 min., followed by initiation of the enzymatic reaction by adding ATP and the substrate. The reaction mixture was incubated at 30° C. for 30 min. At the end of incubation, the reaction was terminated by transferring 25 μl of the reaction mixture to 150 μl of 10% glutathione Sepharose® slurry (Amersham #27-4574-01) containing 135 mM EDTA. The reaction product was captured on the affinity resin, and washed on a filtration plate (Millipore, MABVNOB50) with phosphate buffered saline for six times to remove free radionucleotide. The incorporation of ^33P into ATF2 was quantified on a microplate scintillation counter (Packard Topcount). Compound inhibition potency on JNK was measured by IC50 value generated from ten concentration inhibition curves fitted into the 3-parameter model: % inhibition=Maximum/(1+(IC50/[Inhibitor])^slope). Data were analyzed on Microsoft Excel for parameter estimation.

SMILES	IC50
C=C(C)c1cccc2c1ccn2-c1ccnc(N[C@H]2CC[C@H](C(=O)N3CCn4c(C)cnc4C3)CC2)n1 [Compound 10, {4-[4-(4-Isopropenyl-indol-1-yl)-pyrimidin-2-ylamino]-cyclohexyl}-(3-methyl-5,6-dihydro-8H-imidazo[1,2-a]pyrazin-7-yl)-methanone]	65 nM
Cc1cnc2n1CCN(C(=O)[C@H]1CC[C@H](Nc3nccc(-n4ccc5c(OC(F)F)cccc54)n3)CC1)C2 [Compound 11, {4-[4-(4-Difluoromethoxy-indol-1-yl)-pyrimidin-2-ylamino]-cyclohexyl}-(3-methyl-5,6-dihydro-8H-imidazo[1,2-a]pyrazin-7-yl)-methanone]	97 nM
CS(=O)(=O)CCCOc1cccc2c1cnn2-c1ccnc(N[C@H]2CC[C@H](C(=O)N3CCn4cc(C(F)(F)F)nc4C3)CC2)n1 [Compound 13, (4-{4-[4-(3-Methanesulfonyl-propoxy)-indazol-1-yl]-pyrimidin-2-ylamino}-cyclohexyl)-(2-trifluoromethyl-5,6-dihydro-8H-imidazo[1,2-a]pyrazin-7-yl)-methanone]	12 nM
O=C([C@H]1CC[C@H](Nc2nccc(-n3ncc4c(OCC5CCS(=O)(=O)C5)cccc43)n2)CC1)N1CCn2ccnc2C1 (some centres unmarked) [Compound 15, (5,6-Dihydro-8H-imidazo[1,2-a]pyrazin-7-yl)-(4-{4-[4-(1,1-dioxo-tetrahydro-1λ6-thiophen-3-ylmethoxy)-indazol-1-yl]-pyrimidin-2-ylamino}-cyclohexyl)-methanone]	12 nM
Cc1nnc2n1CCN(C(=O)[C@H]1CC[C@H](Nc3nccc(-n4ccc5c(OCCCS(C)(=O)=O)cccc54)n3)CC1)C2 [Compound 23, (4-{4-[4-(3-Methanesulfonyl-propoxy)-indol-1-yl]-pyrimidin-2-ylamino}-cyclohexyl)-(3-methyl-5,6-dihydro-8H-[1,2,4]triazolo[4,3-a]pyrazin-7-yl)-methanone]	32 nM
O=C([C@H]1CC[C@H](Nc2nccc(-n3ccc4c(OCC5CCS(=O)(=O)C5)cccc43)n2)CC1)N1CCn2cnnc2C1 (some centres unmarked) [Compound 24, (5,6-Dihydro-8H-[1,2,4]triazolo[4,3-a]pyrazin-7-yl)-(4-{4-[4-(1,1-dioxo-tetrahydro-1λ6-thiophen-3-ylmethoxy)-indol-1-yl]-pyrimidin-2-ylamino}-cyclohexyl)-methanone]	17 nM
C=C(C)c1cccc2c1ccn2-c1ccnc(N[C@H]2CC[C@H](C(=O)N3CCn4cnnc4C3)CC2)n1 [Compound 25, (5,6-Dihydro-8H-[1,2,4]triazolo[4,3-a]pyrazin-7-yl)-{4-[4-(4-isopropenyl-indol-1-yl)-pyrimidin-2-ylamino]-cyclohexyl}-methanone]	191 nM
C=C(C)c1cccc2c1ccn2-c1ccnc(N[C@H]2CC[C@H](C(=O)N3CCn4c(C)nnc4C3)CC2)n1 [Compound 26, {4-[4-(4-Isopropenyl-indol-1-yl)-pyrimidin-2-ylamino]-cyclohexyl}-(3-methyl-5,6-dihydro-8H-[1,2,4]triazolo[4,3-a]pyrazin-7-yl)-methanone]	174 nM
O=C([C@H]1CC[C@H](Nc2nccc(-n3ccc4c(OC(F)F)cccc43)n2)CC1)N1CCn2cnnc2C1 [Compound 27, {4-[4-(4-Difluoromethoxy-indol-1-yl)-pyrimidin-2-ylamino]-cyclohexyl}-(5,6-dihydro-8H-[1,2,4]triazolo[4,3-a]pyrazin-7-yl)-methanone]	269 nM
Cc1nnc2n1CCN(C(=O)[C@H]1CC[C@H](Nc3nccc(-n4ccc5c(OC(F)F)cccc54)n3)CC1)C2 [Compound 28, {4-[4-(4-Difluoromethoxy-indol-1-yl)-pyrimidin-2-ylamino]-cyclohexyl}-(3-methyl-5,6-dihydro-8H-[1,2,4]triazolo[4,3-a]pyrazin-7-yl)-methanone]	228 nM
Cc1cccc2c1nnn2-c1ccnc(N[C@H]2CC[C@H](C(=O)N3CCn4cc(C(F)(F)F)nc4C3)CC2)n1 [Compound 33, {4-[4-(4-Methyl-benzotriazol-1-yl)-pyrimidin-2-ylamino]-cyclohexyl}-(2-trifluoromethyl-5,6-dihydro-8H-imidazo[1,2-a]pyrazin-7-yl)-methanone]	58 nM
Cc1cccc2c1nnn2-c1ccnc(N[C@H]2CC[C@H](C(=O)N3CCn4cnnc4C3)CC2)n1 [Compound 34, (5,6-Dihydro-8H-[1,2,4]triazolo[4,3-a]pyrazin-7-yl)-{4-[4-(4-methyl-benzotriazol-1-yl)-pyrimidin-2-ylamino]-cyclohexyl}-methanone]	59 nM
Cc1cccc2c1nnn2-c1ccnc(N[C@H]2CC[C@H](C(=O)N3CCn4c(C)nnc4C3)CC2)n1 [Compound 35, {4-[4-(4-Methyl-benzotriazol-1-yl)-pyrimidin-2-ylamino]-cyclohexyl}-(3-methyl-5,6-dihydro-8H-[1,2,4]triazolo[4,3-a]pyrazin-7-yl)-methanone]	38 nM
O=C([C@H]1CC[C@@H](Nc2nccc(-n3nnc4c(C(F)(F)F)cccc43)n2)CC1)N1CCn2cnnc2C1 [Compound 37, (5,6-Dihydro-8H-[1,2,4]triazolo[4,3-a]pyrazin-7-yl)-{4-[4-(4-trifluoromethyl-benzotriazol-1-yl)-pyrimidin-2-ylamino]-cyclohexyl}-methanone]	180 nM
CC(C)(O)c1cccc2c1nnn2-c1ccnc(N[C@H]2CC[C@H](C(=O)N3CCn4cnnc4C3)CC2)n1 [Compound 38, (5,6-Dihydro-8H-[1,2,4]triazolo[4,3-a]pyrazin-7-yl)-(4-{4-[4-(1-hydroxy-1-methyl-ethyl)-benzotriazol-1-yl]-pyrimidin-2-ylamino}-cyclohexyl)-methanone]	49 nM
Cc1nnc2n1CCN(C(=O)[C@H]1CC[C@H](Nc3nccc(-n4nnc5c(C(C)(C)O)cccc54)n3)CC1)C2 [Compound 39, (4-{4-[4-(1-Hydroxy-1-methyl-ethyl)-benzotriazol-1-yl]-pyrimidin-2-ylamino}-cyclohexyl)-(3-methyl-5,6-dihydro-8H-[1,2,4]triazolo[4,3-a]pyrazin-7-yl)-methanone]	31 nM
Cc1cnc2n1CCN(C(=O)[C@H]1CC[C@H](Nc3nccc(-n4nnc5c(C(C)(C)O)cccc54)n3)CC1)C2 [Compound 41, (4-{4-[4-(1-Hydroxy-1-methyl-ethyl)-benzotriazol-1-yl]-pyrimidin-2-ylamino}-cyclohexyl)-(3-methyl-5,6-dihydro-8H-imidazo[1,2-a]pyrazin-7-yl)-methanone]	52 nM
O=C([C@H]1CC[C@H](Nc2nccc(-c3cnc4c(C(F)(F)F)cccn34)n2)CC1)N1CCn2cnnc2C1 [Compound 42, (5,6-Dihydro-8H-[1,2,4]triazolo[4,3-a]pyrazin-7-yl)-{4-[4-(8-trifluoromethyl-imidazo[1,2-a]pyridin-3-yl)-pyrimidin-2-ylamino]-cyclohexyl}-methanon]	205 nM
Cc1nnc2n1CCN(C(=O)[C@H]1CC[C@H](Nc3nccc(-c4cnc5c(C(F)(F)F)cccn45)n3)CC1)C2 [Compound 43, (3-Methyl-5,6-dihydro-8H-[1,2,4]triazolo[4,3-a]pyrazin-7-yl)-{4-[4-(8-trifluoromethyl-imidazo[1,2-a]pyridin-3-yl)-pyrimidin-2-ylamino]-cyclohexyl}-methanone]	234 nM
